Assay results reported in paper PMC6792352, “Limited Chemical Structural Diversity Found to Modulate Thyroid Hormone Receptor in the Tox21 Chemical Library” (Environmental Health Perspectives, 2019).
Counter-ions that a name gives are not always drawn. Like-named read-outs stand apart in the source and are kept apart here.

Assays:
in vitro = conditions: rat, gh3-tre-luc cells, AC50 (uM) modified / 1000
GH3-TRE-Luc cell line = conditions: read-out: AC50 (uM) modified / 1000, viability, 1 nM T3 present, 24 h

Structure (SMILES): Cc1ccc(S(=O)(=O)Oc2ccc(N=Nc3ccc(-c4ccc(N=Nc5c(O)ccc6cc(S(=O)(=O)O)cc(S(=O)(=O)O)c56)c(C)c4)cc3C)cc2)cc1 [C.I. Acid Red 114]
- CC50 at 24 h (in vitro): 32.3 µM
- CC50 (GH3-TRE-Luc cell line; Tox21_110001=Tox21_302977): 17.5 µM

Structure (SMILES): CC(C)(c1cc(Br)c(O)c(Br)c1)c1cc(Br)c(O)c(Br)c1 [3,3',5,5'-Tetrabromobisphenol A]
- CC50 at 24 h (in vitro): 39.3 µM
- CC50 (GH3-TRE-Luc cell line; Tox21_110001=Tox21_201981): 43.3 µM
- CC50 (GH3-TRE-Luc cell line; Tox21_110001=Tox21_300561): 38.6 µM

Structure (SMILES): O=C(CCCCCCC(=O)Nc1ccccc1)NO [Suberoylanilide hydroxamic acid]
- CC50 at 24 h (in vitro): 2.15 µM
- CC50 (GH3-TRE-Luc cell line; Tox21_110001=Tox21_112605): 2.46 µM

Structure (SMILES): CC(C)(c1ccccc1)c1ccc(O)cc1 [4-Cumylphenol]
- CC50 at 24 h (in vitro): 45.2 µM
- CC50 (GH3-TRE-Luc cell line; Tox21_110001=Tox21_300056): 51 µM

Structure (SMILES): Cc1[nH]cnc1C[C@H]1CCc2c(C)c3ccccc3n2C1=O [Fabesetron]
- CC50 at 24 h (in vitro): 33.3 µM
- CC50 (GH3-TRE-Luc cell line; Tox21_110001=Tox21_113200): 23.5 µM

Structure (SMILES): Oc1c(I)cc(Cl)c2cccnc12 [Clioquinol]
- CC50 at 24 h (in vitro): 43.1 µM
- CC50 (GH3-TRE-Luc cell line; Tox21_110001=Tox21_110416): 43.7 µM

Structure (SMILES): C#C[C@]1(OC(C)=O)CC[C@H]2[C@@H]3CCC4=C[C@@H](OC(C)=O)CC[C@@H]4[C@H]3CC[C@@]21C [Ethynodiol diacetate]
- CC50 at 24 h (in vitro): 45 µM
- CC50 (GH3-TRE-Luc cell line; Tox21_110001=Tox21_112924): 44.6 µM

Structure (SMILES): CCCCCC(=O)O[C@]1(C(C)=O)CC[C@H]2[C@@H]3CCC4=CC(=O)CC[C@]4(C)[C@H]3CC[C@@]21C [Hydroxyprogesterone caproate]
- CC50 at 24 h (in vitro): 17.9 µM
- CC50 (GH3-TRE-Luc cell line; Tox21_110001=Tox21_302333): 26.2 µM

Structure (SMILES): N#Cc1nn(-c2c(Cl)cc(C(F)(F)F)cc2Cl)c(N)c1[S+]([O-])C(F)(F)F (centres unmarked) [Fipronil]
- CC50 at 24 h (in vitro): 49.6 µM
- CC50 (GH3-TRE-Luc cell line; Tox21_110001=Tox21_111300): 36.1 µM

Structure (SMILES): Clc1ccc(C(c2ccccc2Cl)C(Cl)(Cl)Cl)cc1 (centres unmarked) [o,p'-DDT]
- CC50 at 24 h (in vitro): 34 µM
- CC50 (GH3-TRE-Luc cell line; Tox21_110001=Tox21_300622): 39.9 µM

Structure (SMILES): O=C(c1cc(O)c(O)c(O)c1)c1ccc(O)c(O)c1O [Exifone]
- CC50 at 24 h (in vitro): 43.6 µM
- CC50 (GH3-TRE-Luc cell line; Tox21_110001=Tox21_303559): 62.8 µM

Structure (SMILES): c1cc(OCC2CO2)ccc1Cc1ccc(OCC2CO2)cc1 (centres unmarked) [Bis[4-(glycidyloxy)phenyl]methane]
- CC50 at 24 h (in vitro): 42.4 µM
- CC50 (GH3-TRE-Luc cell line; Tox21_110001=Tox21_303420): 48.6 µM

Structure (SMILES): Cc1c(C(=O)O)c(O)cc2c1C(=O)c1c(O)c([C@@H]3O[C@H](CO)[C@@H](O)[C@H](O)[C@H]3O)c(O)c(O)c1C2=O [Carminic acid]
- CC50 at 24 h (in vitro): 55.9 µM
- CC50 (GH3-TRE-Luc cell line; Tox21_110001=Tox21_300294): 56.2 µM

Structure (SMILES): Cc1ccc(N)c(N)c1 [3,4-Diaminotoluene]
- CC50 at 24 h (in vitro): 32.1 µM
- CC50 (GH3-TRE-Luc cell line; Tox21_110001=Tox21_300507): 18.4 µM

Structure (SMILES): c1ccc(Nc2ccc3ccccc3c2)cc1 [N-Phenyl-2-naphthylamine]
- CC50 at 24 h (in vitro): 47.3 µM
- CC50 (GH3-TRE-Luc cell line; Tox21_110001=Tox21_302900): > 90 µM

Structure (SMILES): C#CCOS(=O)OC1CCCCC1Oc1ccc(C(C)(C)C)cc1 (centres unmarked) [Propargite]
- CC50 at 24 h (in vitro): 5.83 µM
- CC50 (GH3-TRE-Luc cell line; Tox21_110001=Tox21_300805): 7.01 µM

Structure (SMILES): CCCN(CCC)c1c([N+](=O)[O-])cc(C(F)(F)F)cc1[N+](=O)[O-] [Trifluralin]
- CC50 at 24 h (in vitro): > 90 µM
- CC50 (GH3-TRE-Luc cell line; Tox21_110001=Tox21_300918): 62.5 µM

Structure (SMILES): Cc1cc(C(C)(C)CC(C)(C)C)ccc1OCCOCC[N+](C)(C)Cc1ccccc1 [Methylbenzethonium chloride]
- CC50 at 24 h (in vitro): 9.38 µM
- CC50 (GH3-TRE-Luc cell line; Tox21_110001=Tox21_301446): 7.92 µM

Structure (SMILES): CC(C)[C@@]1(NC(=O)[C@@H]2C[C@@H]3c4cccc5[nH]cc(c45)C[C@H]3N(C)C2)O[C@@]2(O)[C@@H]3CCCN3C(=O)[C@H](Cc3ccccc3)N2C1=O [Dihydroergocristine]
- CC50 at 24 h (in vitro): 21 µM
- CC50 (GH3-TRE-Luc cell line; Tox21_110001=Tox21_113115): 21.9 µM

Structure (SMILES): Nc1c(/N=N/c2ccc(-c3ccc(/N=N/c4cc(S(=O)(=O)O)c5ccccc5c4N)cc3)cc2)cc(S(=O)(=O)O)c2ccccc12 [C.I. Direct Red 28]
- CC50 at 24 h (in vitro): 27 µM
- CC50 (GH3-TRE-Luc cell line; Tox21_110001=Tox21_111605): 16.3 µM

Structure (SMILES): O=S(=O)(O)c1cc(S(=O)(=O)O)c2c(N=Nc3ccccc3)c(O)ccc2c1 [C.I. Acid Orange 10]
- CC50 at 24 h (in vitro): 46.4 µM
- CC50 (GH3-TRE-Luc cell line; Tox21_110001=Tox21_303019): 48.6 µM

Structure (SMILES): O=S(=O)(O)c1ccc(N=Nc2c(O)ccc3cc(S(=O)(=O)O)ccc23)cc1 [FD&C Yellow 6]
- CC50 at 24 h (in vitro): 38.5 µM
- CC50 (GH3-TRE-Luc cell line; Tox21_110001=Tox21_300407): 65.1 µM

Structure (SMILES): Cc1cc(C2(c3cc(C)c(O)cc3C)OS(=O)(=O)c3ccccc32)c(C)cc1O [p-Xylenol blue]
- CC50 at 24 h (in vitro): 56.6 µM
- CC50 (GH3-TRE-Luc cell line; Tox21_110001=Tox21_303062): 47.5 µM

Structure (SMILES): CCc1cccc(CC)c1N(COC)C(=O)CCl [Alachlor]
- CC50 at 24 h (in vitro): > 90 µM
- CC50 (GH3-TRE-Luc cell line; Tox21_110001=Tox21_300713): 78.7 µM

Structure (SMILES): Cc1ccc(O)c(C(C)(C)C)c1 [2-tert-Butyl-4-methylphenol]
- CC50 at 24 h (in vitro): 89.6 µM
- CC50 (GH3-TRE-Luc cell line; Tox21_110001=Tox21_303003): 69.9 µM

Structure (SMILES): CCCCCCCCCCCCCCCC[N+](C)(C)CC [Ethylhexadecyldimethylammonium bromide]
- CC50 at 24 h (in vitro): 11.9 µM
- CC50 (GH3-TRE-Luc cell line; Tox21_110001=Tox21_112326): 6.28 µM

Structure (SMILES): OC(CCN1CCCCC1)(c1ccccc1)C1CC2C=CC1C2 (centres unmarked) [Biperiden hydrochloride]
- CC50 at 24 h (in vitro): 22.6 µM
- CC50 (GH3-TRE-Luc cell line; Tox21_110001=Tox21_113064): 27 µM

Structure (SMILES): CC(C)N(C(=O)SCC(Cl)=C(Cl)Cl)C(C)C [Tri-allate]
- CC50 at 24 h (in vitro): 55.9 µM
- CC50 (GH3-TRE-Luc cell line; Tox21_110001=Tox21_300671): 53.5 µM

Structure (SMILES): C=C1CC[C@H](O)C/C1=C/C=C1\CCC[C@]2(C)[C@@H]([C@H](C)/C=C/[C@H](C)C(C)C)CC[C@@H]12 [Ergocalciferol]
- CC50 at 24 h (in vitro): 42.5 µM
- CC50 (GH3-TRE-Luc cell line; Tox21_110001=Tox21_302752): 77.9 µM

Structure (SMILES): CC(C)(C)C(O)(CCc1ccc(Cl)cc1)Cn1cncn1 (centres unmarked) [Tebuconazole]
- CC50 at 24 h (in vitro): 64.3 µM
- CC50 (GH3-TRE-Luc cell line; Tox21_110001=Tox21_300487): 57.7 µM

Structure (SMILES): CC(=O)OC/C=C(C)/C=C/C=C(C)/C=C/C1=C(C)CCCC1(C)C [Retinol acetate]
- CC50 at 24 h (in vitro): > 50 µM
- CC50 (GH3-TRE-Luc cell line; Tox21_110001=Tox21_201423): 65.7 µM

Structure (SMILES): CCCCCCCCCCCCCC[P+](CCCC)(CCCC)CCCC [Tributyltetradecylphosphonium chloride]
- CC50 at 24 h (in vitro): 2.96 µM
- CC50 (GH3-TRE-Luc cell line; Tox21_110001=Tox21_303556): 3.3 µM

Structure (SMILES): CC(C)(C)c1ccc(O)c(O)c1 [4-tert-Butylcatechol]
- CC50 at 24 h (in vitro): 43 µM
- CC50 (GH3-TRE-Luc cell line; Tox21_110001=Tox21_400003): 49.3 µM

Structure (SMILES): CC(COc1ccccc1)N(CCCl)Cc1ccccc1 (centres unmarked) [Phenoxybenzamine hydrochloride]
- CC50 at 24 h (in vitro): 45 µM
- CC50 (GH3-TRE-Luc cell line; Tox21_110001=Tox21_302978): 68.5 µM

Structure (SMILES): CCC(C)(c1ccc(O)cc1)c1ccc(O)cc1 [Bisphenol B]
- CC50 at 24 h (in vitro): 78.3 µM
- CC50 (GH3-TRE-Luc cell line; Tox21_110001=Tox21_300198): 88.4 µM

Structure (SMILES): CCCCCCCOC(=O)c1ccc(O)cc1 [Heptylparaben]
- CC50 at 24 h (in vitro): 47.8 µM
- CC50 (GH3-TRE-Luc cell line; Tox21_110001=Tox21_303458): 50.7 µM

Structure (SMILES): O=[N+]([O-])c1ccc(Cl)c([N+](=O)[O-])c1 [1-Chloro-2,4-dinitrobenzene]
- CC50 at 24 h (in vitro): 12.5 µM
- CC50 (GH3-TRE-Luc cell line; Tox21_110001=Tox21_302802): 10.1 µM

Structure (SMILES): O=C1c2ccccc2C(=O)N1SC(Cl)(Cl)Cl [Folpet]
- CC50 at 24 h (in vitro): 4.47 µM
- CC50 (GH3-TRE-Luc cell line; Tox21_110001=Tox21_301077): 2.3 µM
